We go through 17 compounds from patent US20140249135A1, “PIM KINASE INHIBITORS AND METHODS OF THEIR USE” (NOVARTIS AG, priority 2007, published 2014).

What is called IC50 is the concentration that inhibits the measured activity by half.

Where two headings read alike, the source gives them in different places.

The target in assay [1] is T1, human full length PKCE enzyme (Homo sapiens, UniProt Q02156).
T1 construct: human full length PKCE enzyme purchased from InVitrogen; purchased InVitrogen
T1 sequence (Q02156 1-737): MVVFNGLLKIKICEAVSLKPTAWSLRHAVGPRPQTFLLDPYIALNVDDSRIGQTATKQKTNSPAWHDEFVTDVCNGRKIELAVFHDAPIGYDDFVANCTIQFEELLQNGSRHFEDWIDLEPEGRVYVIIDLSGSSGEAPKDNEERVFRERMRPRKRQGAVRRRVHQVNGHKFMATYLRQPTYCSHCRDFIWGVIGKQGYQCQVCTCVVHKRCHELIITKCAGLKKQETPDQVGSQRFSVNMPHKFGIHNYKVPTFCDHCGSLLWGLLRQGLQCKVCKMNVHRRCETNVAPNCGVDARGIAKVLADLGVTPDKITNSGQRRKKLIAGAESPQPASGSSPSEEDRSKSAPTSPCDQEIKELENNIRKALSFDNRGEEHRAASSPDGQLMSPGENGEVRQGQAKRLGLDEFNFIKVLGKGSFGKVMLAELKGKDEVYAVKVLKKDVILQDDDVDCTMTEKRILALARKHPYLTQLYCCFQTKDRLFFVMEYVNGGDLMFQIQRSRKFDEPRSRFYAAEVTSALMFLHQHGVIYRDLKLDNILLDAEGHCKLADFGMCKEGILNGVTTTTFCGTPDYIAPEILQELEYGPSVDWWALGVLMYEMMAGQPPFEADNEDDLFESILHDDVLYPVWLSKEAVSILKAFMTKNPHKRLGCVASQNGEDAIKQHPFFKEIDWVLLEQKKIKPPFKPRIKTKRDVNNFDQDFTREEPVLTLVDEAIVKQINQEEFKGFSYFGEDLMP
The assay can be described thus: In vitro PKCE assay. The class given is biochemical. Conditions: 10 nM enzyme, 40 uM peptide substrate, 20 uM ATP, KinaseGlo Plus readout; read-out: PKCε IC50. On the technique in general: Kinase-Glo reads ATP consumption through a luciferase reaction.

The target of a further assay is Pim2 kinase (Homo sapiens, UniProt Q9P1W9). Kind of assay: Pim2 ATP depletion assay.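 Also: Luciferase-based luminescent readout of ATP remaining after PIM2 phosphorylates a BAD peptide, final 5 nM enzyme, 4 µM ATP, 10 µM peptide, 2.5% DMSO, run to roughly half ATP consumption.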 The class given is biochemical.
Another assay has as its target Pim3 kinase (Homo sapiens, UniProt Q86V86). Kind of assay: Pim3 ATP depletion assay. The class given is biochemical.
For the next assay, the target named is Pim1 kinase (Homo sapiens, UniProt P11309). Kind of assay: Pim1 ATP depletion assay.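 Also: Luciferase-luciferin luminescence readout of residual ATP after PIM1 transfers phosphate to a peptide substrate, 40 µM ATP added, reaction run to roughly half ATP consumption.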 Conditions: Pim1 ATP depletion assay. The format is biochemical.
The next assay deals with KDR kinase (Homo sapiens, UniProt P35968). The assay can be described thus: KDR AlphaScreen assay. Conditions: KDR IC50 (μM). In general terms: Alpha assays give light when donor and acceptor beads are brought close together.
Chain of KDR kinase (P35968 20-1356): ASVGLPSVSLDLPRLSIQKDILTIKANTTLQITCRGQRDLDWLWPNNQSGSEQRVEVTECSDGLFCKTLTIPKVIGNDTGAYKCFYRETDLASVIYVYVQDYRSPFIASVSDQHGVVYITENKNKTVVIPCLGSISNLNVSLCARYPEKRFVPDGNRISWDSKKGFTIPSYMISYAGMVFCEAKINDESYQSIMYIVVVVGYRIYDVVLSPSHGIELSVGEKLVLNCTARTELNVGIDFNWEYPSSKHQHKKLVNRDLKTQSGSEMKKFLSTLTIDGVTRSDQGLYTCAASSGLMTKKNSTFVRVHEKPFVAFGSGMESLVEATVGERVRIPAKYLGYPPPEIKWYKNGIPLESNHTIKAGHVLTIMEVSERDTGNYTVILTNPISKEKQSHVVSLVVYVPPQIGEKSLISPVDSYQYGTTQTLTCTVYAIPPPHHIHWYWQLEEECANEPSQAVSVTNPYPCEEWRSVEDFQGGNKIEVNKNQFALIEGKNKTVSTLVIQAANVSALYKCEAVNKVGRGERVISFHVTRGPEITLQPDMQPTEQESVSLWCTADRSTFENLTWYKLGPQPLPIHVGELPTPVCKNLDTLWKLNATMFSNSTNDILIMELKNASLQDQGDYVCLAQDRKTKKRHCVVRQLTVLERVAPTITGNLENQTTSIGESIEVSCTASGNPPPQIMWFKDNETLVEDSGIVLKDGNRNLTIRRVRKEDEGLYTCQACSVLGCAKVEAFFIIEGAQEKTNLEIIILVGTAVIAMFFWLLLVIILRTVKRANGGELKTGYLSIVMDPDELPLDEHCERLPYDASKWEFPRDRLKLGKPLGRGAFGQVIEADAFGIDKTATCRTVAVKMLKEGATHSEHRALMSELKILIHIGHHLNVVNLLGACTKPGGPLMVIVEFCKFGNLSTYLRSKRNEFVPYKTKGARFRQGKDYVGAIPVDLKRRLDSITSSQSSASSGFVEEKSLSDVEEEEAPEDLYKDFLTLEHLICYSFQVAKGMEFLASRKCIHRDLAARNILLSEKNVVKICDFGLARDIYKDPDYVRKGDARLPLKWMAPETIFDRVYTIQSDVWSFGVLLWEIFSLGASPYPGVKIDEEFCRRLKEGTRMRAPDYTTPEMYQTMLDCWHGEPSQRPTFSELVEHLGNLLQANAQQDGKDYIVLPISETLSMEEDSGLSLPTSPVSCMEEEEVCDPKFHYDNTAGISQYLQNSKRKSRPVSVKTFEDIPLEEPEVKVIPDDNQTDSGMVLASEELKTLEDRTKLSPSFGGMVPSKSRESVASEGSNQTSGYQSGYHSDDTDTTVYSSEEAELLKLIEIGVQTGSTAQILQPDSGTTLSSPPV

Chain of Pim1 kinase (P11309 whole entry): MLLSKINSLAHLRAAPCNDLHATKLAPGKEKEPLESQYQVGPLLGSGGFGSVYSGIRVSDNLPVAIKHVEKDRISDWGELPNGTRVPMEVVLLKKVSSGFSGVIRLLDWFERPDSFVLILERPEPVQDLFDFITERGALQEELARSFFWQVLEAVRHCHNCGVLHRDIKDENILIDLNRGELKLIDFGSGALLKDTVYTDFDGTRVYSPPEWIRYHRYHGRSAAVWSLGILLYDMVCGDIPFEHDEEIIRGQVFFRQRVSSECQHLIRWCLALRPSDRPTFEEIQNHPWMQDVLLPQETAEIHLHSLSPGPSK
Chain of Pim2 kinase (Q9P1W9 whole entry): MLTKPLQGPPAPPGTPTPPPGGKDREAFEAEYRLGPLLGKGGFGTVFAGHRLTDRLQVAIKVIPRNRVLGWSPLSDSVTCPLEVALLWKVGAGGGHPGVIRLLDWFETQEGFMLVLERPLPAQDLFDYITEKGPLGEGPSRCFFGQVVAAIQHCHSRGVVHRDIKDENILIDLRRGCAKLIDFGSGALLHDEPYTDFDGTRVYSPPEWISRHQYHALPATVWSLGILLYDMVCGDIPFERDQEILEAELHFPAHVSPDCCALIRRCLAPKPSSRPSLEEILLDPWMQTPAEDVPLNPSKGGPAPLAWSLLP

With `COc1ncc(-c2cnc(N)c(C(=O)Nc3ccccc3N3CCNCC3)n2)cn1` [Example 391, 3-amino-6-(2-methoxy-pyrimidin-5-yl)-pyrazine-2-carboxylic acid (2-piperazin-1-yl-phenyl)-amide], the IC50 in assay [1] was 1 to 10 µM; at Pim2 kinase (read-out: IC50 (μM) PIM2), above 25 µM; at Pim3 kinase (read-out: IC50 (μM) PIM3) it was 1 to 10 µM; at Pim1 kinase (read-out: IC50 (μM) PIM1), 1 to 10 µM; against KDR kinase it was above 25 µM.

Regarding `Cc1ccc(-c2ccc(N)c(C(=O)Nc3cnccc3N3CCC[C@H](N)C3)n2)c(F)c1` [Example 406, (S)-3-amino-N-(4-(3-aminopiperidin-1-yl)pyridin-3-yl)-6-(2-fluoro-4-methylphenyl)picolinamide], the IC50 was 1 to 10 µM in assay [1]; below 1 µM on Pim2 kinase (read-out: IC50 (μM) PIM2); below 1 µM at Pim3 kinase (read-out: IC50 (μM) PIM3); below 1 µM on Pim1 kinase (read-out: IC50 (μM) PIM1); above 25 µM at KDR kinase.

`Nc1ncc(-c2ccc(N)c(C(=O)Nc3cnccc3N3CCC[C@H](N)C3)n2)cn1` [Example 411, 3-amino-6-(2-amino-pyrimidin-5-yl)-pyridine-2-carboxylic acid ((S)-3-amino-3,4,5,6-tetrahydro-2H-[1,4′]bipyridinyl-3′-yl)-amide]: the IC50 in assay [1] was 10 to 25 µM; on Pim2 kinase (read-out: IC50 (μM) PIM2), below 1 µM; on Pim3 kinase (read-out: IC50 (μM) PIM3), below 1 µM; on Pim1 kinase (read-out: IC50 (μM) PIM1), below 1 µM; against KDR kinase, above 25 µM.

As for `Nc1ncc(-c2ccccc2)nc1C(=O)Nc1cc(C(=O)c2ccccc2)ccc1N1CCCC(N)C1` (stereo not shown) [Example 435, 3-amino-6-phenyl-pyrazine-2-carboxylic acid [2-(3-amino-piperidin-1-yl)-5-benzoyl-phenyl]-amide], the IC50 in assay [1] is 10 to 25 µM; at Pim2 kinase (read-out: IC50 (μM) PIM2), 1 to 10 µM; on Pim3 kinase (read-out: IC50 (μM) PIM3), 1 to 10 µM; at Pim1 kinase (read-out: IC50 (μM) PIM1) it was 1 to 10 µM; on KDR kinase it was below 1 µM.

Take `Nc1ncc(-c2ccccc2)nc1C(=O)Nc1cc(C(=O)c2ccccc2)ccc1N1CCC(N)CC1` [Example 436, 3-amino-6-phenyl-pyrazine-2-carboxylic acid [2-(4-amino-piperidin-1-yl)-5-benzoyl-phenyl]-amide]: the IC50 in assay [1] was 1 to 10 µM; at Pim2 kinase (read-out: IC50 (μM) PIM2), above 25 µM; on Pim3 kinase (read-out: IC50 (μM) PIM3), 1 to 10 µM; at Pim1 kinase (read-out: IC50 (μM) PIM1), 1 to 10 µM; at KDR kinase it was 1 to 10 µM.

As to `COc1ccc(N2CCC(N)CC2)c(NC(=O)c2nc(-c3ccccc3)cnc2N)c1` [Example 437, 3-amino-6-phenyl-pyrazine-2-carboxylic acid [2-(4-amino-piperidin-1-yl)-5-methoxy-phenyl]-amide], the IC50 in assay [1] is below 1 µM; on Pim2 kinase (read-out: IC50 (μM) PIM2), below 1 µM; at Pim3 kinase (read-out: IC50 (μM) PIM3), below 1 µM; at Pim1 kinase (read-out: IC50 (μM) PIM1), below 1 µM; on KDR kinase it was 1 to 10 µM.

Turning to `Nc1ncc(-c2ccccc2F)nc1C(=O)Nc1cc(C(=O)c2ccccc2)ccc1N1CCNCC1` [Example 438, 3-amino-6-(2-fluoro-phenyl)-pyrazine-2-carboxylic acid (5-benzoyl-2-piperazin-1-yl-phenyl)-amide], the IC50 is above 25 µM in assay [1]; above 25 µM on Pim2 kinase (read-out: IC50 (μM) PIM2); 1 to 10 µM at Pim3 kinase (read-out: IC50 (μM) PIM3); 1 to 10 µM at Pim1 kinase (read-out: IC50 (μM) PIM1); 1 to 10 µM against KDR kinase.

As for `Nc1ncc(-c2ccccc2F)nc1C(=O)Nc1cc(C(=O)c2ccccc2)ccc1N1CCC(N)CC1` [Example 439, 3-amino-6-(2-fluoro-phenyl)-pyrazine-2-carboxylic acid [2-(4-amino-piperidin-1-yl)-5-benzoyl-phenyl]-amide], the IC50 in assay [1] is 1 to 10 µM; at Pim2 kinase (read-out: IC50 (μM) PIM2), above 25 µM; on Pim3 kinase (read-out: IC50 (μM) PIM3), 1 to 10 µM; at Pim1 kinase (read-out: IC50 (μM) PIM1), 1 to 10 µM; against KDR kinase it was 1 to 10 µM.

As for `Cc1cnc(N)c(C(=O)Nc2cc(C(=O)c3ccccc3)ccc2N2CCNCC2)n1` [Example 440, 3-amino-6-methyl-pyrazine-2-carboxylic acid (5-benzoyl-2-piperazin-1-yl-phenyl)-amide], the IC50 in assay [1] is above 25 µM; at Pim2 kinase (read-out: IC50 (μM) PIM2) it was above 25 µM; at Pim3 kinase (read-out: IC50 (μM) PIM3) it was 10 to 25 µM; on Pim1 kinase (read-out: IC50 (μM) PIM1), above 25 µM; at KDR kinase, 1 to 10 µM.

On to `COc1ccc(-c2cnc(N)c(C(=O)Nc3cc(C(=O)c4ccccc4)ccc3N3CCNCC3)n2)cc1` [Example 441, 3-amino-6-(4-methoxy-phenyl)-pyrazine-2-carboxylic acid (5-benzoyl-2-piperazin-1-yl-phenyl)-amide], for which the IC50 was 10 to 25 µM in assay [1]; above 25 µM on Pim2 kinase (read-out: IC50 (μM) PIM2); 1 to 10 µM on Pim3 kinase (read-out: IC50 (μM) PIM3); 1 to 10 µM at Pim1 kinase (read-out: IC50 (μM) PIM1); below 1 µM against KDR kinase.

In the case of `Nc1ccc(-c2cnc(N)c(C(F)(F)F)c2)nc1C(=O)Nc1cnccc1N1CCC[C@H](N)C1` [Example 482, 5,6′-Diamino-5′-trifluoromethyl-[2,3′]bipyridinyl-6-carboxylic acid (3-amino-3,4,5,6-tetrahydro-2H-[1,4′]bipyridinyl-3′-yl)-amide], the IC50 was above 25 µM in assay [1]; below 1 µM at Pim2 kinase (read-out: IC50 (μM) PIM2); below 1 µM at Pim3 kinase (read-out: IC50 (μM) PIM3); below 1 µM at Pim1 kinase (read-out: IC50 (μM) PIM1); 10 to 25 µM on KDR kinase.

For the compound `Nc1cc(C(F)(F)F)c(-c2ccc(N)c(C(=O)Nc3cnccc3N3CCC[C@H](N)C3)n2)cn1` [Example 483, 5,6′-Diamino-4′-trifluoromethyl-[2,3′]bipyridinyl-6-carboxylic acid (3-amino-3,4,5,6-tetrahydro-2H-[1,4′]bipyridinyl-3′-yl)-amide], the IC50 in assay [1] is 10 to 25 µM; at Pim2 kinase (read-out: IC50 (μM) PIM2), below 1 µM; on Pim3 kinase (read-out: IC50 (μM) PIM3), below 1 µM; on Pim1 kinase (read-out: IC50 (μM) PIM1), below 1 µM; on KDR kinase, above 25 µM.

As for `Nc1ccc(-c2ccc(N)c(C(=O)Nc3cnccc3N3CCC[C@H](N)C3)n2)c(F)n1` [Example 484, 5,6′-Diamino-2′-fluoro-[2,3′]bi-pyridinyl-6-carboxylic acid (3-amino-3,4,5,6-tetrahydro-2H-[1,4′]bipyridinyl-3′-yl)-amide], the IC50 in assay [1] is 10 to 25 µM; on Pim2 kinase (read-out: IC50 (μM) PIM2), below 1 µM; on Pim3 kinase (read-out: IC50 (μM) PIM3), below 1 µM; at Pim1 kinase (read-out: IC50 (μM) PIM1), below 1 µM; on KDR kinase, above 25 µM.

Regarding `COc1nc(N)ncc1-c1ccc(N)c(C(=O)Nc2cnccc2N2CCC[C@H](N)C2)n1` [Example 485, 3-Amino-6-(2-amino-4-methoxy-pyrimidin-5-yl)-pyridine-2-carboxylic acid (3-amino-3,4,5,6-tetrahydro-2H-[1,4′]bipyridinyl-3′-yl)-amide], the IC50 is above 25 µM in assay [1]; below 1 µM at Pim2 kinase (read-out: IC50 (μM) PIM2); below 1 µM on Pim3 kinase (read-out: IC50 (μM) PIM3); below 1 µM on Pim1 kinase (read-out: IC50 (μM) PIM1); 10 to 25 µM against KDR kinase.

Consider `Nc1ccc(-c2cccnc2F)nc1C(=O)Nc1ccncc1N1CCCC(N)C1` (stereo not shown) [Example 552, 5-Amino-2′-fluoro-[2,3′]bi-pyridinyl-6-carboxylic acid (3-amino-3,4,5,6-tetrahydro-2H-[1,3′]bipyridinyl-4′-yl)-amide], for which the half-inhibitory concentration (IC50) is 1 to 10 µM in assay [1]; below 1 µM at Pim2 kinase (read-out: PIM2 IC50); below 1 µM on Pim3 kinase (read-out: PIM3 IC50); below 1 µM on Pim1 kinase (read-out: PIM1 IC50); 1 to 10 µM against KDR kinase.

As for `CN1CCC(NC2CCCN(c3ccncc3NC(=O)c3nc(Br)cnc3N)C2)CC1` (stereo not shown) [Example 597, 3-amino-6-bromo-N-(4-(3-(1-methylpiperidin-4-ylamino)piperidin-1-yl)pyridin-3-yl)pyrazine-2-carboxamide], the IC50 is 1 to 10 µM in assay [1]; 1 to 10 µM at Pim2 kinase (read-out: PIM2 IC50); below 1 µM at Pim3 kinase (read-out: PIM3 IC50); below 1 µM at Pim1 kinase (read-out: PIM1 IC50); above 25 µM against KDR kinase.

Consider `Nc1ncc(Br)nc1C(=O)Nc1cnccc1N1CCCC(NCc2ccccc2)C1` (stereo not shown) [Example 598, 3-amino-6-bromo-pyrazine-2-carboxylic acid (3-benzylamino-3,4,5,6-tetrahydro-2H-[1,4′]bi-pyridinyl-3′-yl)-amide], for which the IC50 was 1 to 10 µM in assay [1]; 1 to 10 µM on Pim2 kinase (read-out: PIM2 IC50); below 1 µM at Pim3 kinase (read-out: PIM3 IC50); below 1 µM at Pim1 kinase (read-out: PIM1 IC50); 1 to 10 µM against KDR kinase.
